Assay results as given in US12565505B2, “mTORC modulators and uses thereof” (Aeovian Pharmaceuticals, Inc., priority 2019, dated 2026).

Columns and labels:
mTORC2 = biological target: T1, mTORC2 (Homo sapiens, UniProt P42345+P62942); test: Inhibition assay for mTORC2: phosphorylation of pAkt at Ser473, AlphaLISA SureFire in PC3 cells; type: cell-based; settings: PC3 cells, 24 hours treatment, analogs substituted at C40 and C16 (C16 diastereomer mixtures not isolated), read-out: pIC50 mTORC2 (converted)
T1 construct: endogenous in cells; host or cells: PC3 cells (human prostate adenocarcinoma)
How it was run: (§1)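 Human prostate adenocarcinoma PC3 cells treated with compounds for 24 h. AlphaLISA SureFire read-out of pS6K Thr389 for mTORC1 and pAkt Ser473 for mTORC2, from which IC50s were derived.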

mTORC1 = biological target: T2, mTORC1 (Homo sapiens, UniProt P42345+P62942); test: Inhibition assay for mTORC1: phosphorylation of pS6K at Thr389, AlphaLISA SureFire in PC3 cells; type: cell-based; settings: PC3 cells, 24 hours treatment, pS6K Thr389; analogs substituted at C40 and C16 (C16 diastereomer mixtures not isolated); read-out: pIC50 mTORC1 (converted)
T2 construct: endogenous in cells; host or cells: PC3 cells (human prostate adenocarcinoma)
How it was run: as §1

CO[C@@H]1C[C@H](C[C@@H](C)[C@@H]2CC(=O)[C@H](C)/C=C(\C)[C@@H](O)[C@@H](OC)C(=O)[C@H](C)C[C@H](C)/C=C/C=C/C=C(\C)C(OCCc3ccccc3)C[C@@H]3CC[C@@H](C)[C@@](O)(O3)C(=O)C(=O)N3CCCCC3C(=O)O2)CC[C@H]1OC(=O)NCCN(C)C (stereo partly drawn) [Compound 104, [(1R,2R,4S)-4-[(2R)-2-[(1R,9S,12S,15R,16E,18R,19R,21R,23S,24E,26E,28E,32S,35R)-1,18-dihydroxy-19-methoxy-15,17,21,23,29,35-hexamethyl-2,3,10,14,20-pentaoxo-30-(2-phenylethoxy)-11,36-dioxa-4-azatricyclo[30.3.1.0^4,9]hexatriaconta-16,24,26,28-tetraen-12-yl]propyl]-2-methoxy-cyclohexyl] N-[2-(dimethylamino)ethyl]carbamate]
IC50 (mTORC2): < 1000 nM | IC50 (mTORC1): < 0.316 nM

CO[C@@H]1C[C@H](C[C@@H](C)[C@@H]2CC(=O)[C@H](C)/C=C(\C)[C@@H](O)[C@@H](OC)C(=O)[C@H](C)C[C@H](C)/C=C/C=C/C=C(\C)C(OCCc3ccccc3)C[C@@H]3CC[C@@H](C)[C@@](O)(O3)C(=O)C(=O)N3CCCCC3C(=O)O2)CC[C@H]1OC(=O)N(C)CCN(C)C (stereo partly shown) [Compound 109]
IC50 (mTORC2): < 1000 nM | IC50 (mTORC1): < 0.316 nM

CO[C@@H]1C[C@H](C[C@@H](C)[C@@H]2CC(=O)[C@H](C)/C=C(\C)[C@@H](O)[C@@H](OC)C(=O)[C@H](C)C[C@H](C)/C=C/C=C/C=C(\C)C(OCCO)C[C@@H]3CC[C@@H](C)[C@@](O)(O3)C(=O)C(=O)N3CCCCC3C(=O)O2)CC[C@H]1OCCO (stereo partly shown) [Compound 9]
IC50 (mTORC2): > 10000 nM | IC50 (mTORC1): < 0.316 nM

CO[C@@H]1C[C@H](C[C@@H](C)[C@@H]2CC(=O)[C@H](C)/C=C(\C)[C@@H](O)[C@@H](OC)C(=O)[C@H](C)C[C@H](C)/C=C/C=C/C=C(\C)C(OCCCCO)C[C@@H]3CC[C@@H](C)[C@@](O)(O3)C(=O)C(=O)N3CCCC[C@H]3C(=O)O2)CC[C@H]1OCCCO (mixture of isomers) [Compound 68]
IC50 (mTORC2): 1000 to 10000 nM | IC50 (mTORC1): < 0.316 nM

COCCOC1C[C@@H]2CC[C@@H](C)[C@@](O)(O2)C(=O)C(=O)N2CCCCC2C(=O)O[C@H]([C@H](C)C[C@@H]2CC[C@@H](OCCCN3C[C@@H](C)O[C@@H](C)C3)[C@H](OC)C2)CC(=O)[C@H](C)/C=C(\C)[C@@H](O)[C@@H](OC)C(=O)[C@H](C)C[C@H](C)/C=C/C=C/C=C/1C (stereo partly shown) [Compound 59]
IC50 (mTORC2): 1000 to 10000 nM | IC50 (mTORC1): < 0.316 nM

CO[C@@H]1C[C@H](C[C@@H](C)[C@@H]2CC(=O)[C@H](C)/C=C(\C)[C@@H](O)[C@@H](OC)C(=O)[C@H](C)C[C@H](C)/C=C/C=C/C=C(\C)C(OCCO)C[C@@H]3CC[C@@H](C)[C@@](O)(O3)C(=O)C(=O)N3CCCCC3C(=O)O2)CC[C@H]1OCCCN1CCOCC1 (stereo partly drawn) [Compound 55, (1R,9S,12SR,15R,16E,18R,19R,21R,23S,24E,26E,28E,32S,35R)-1,18-dihydroxy-30-(2-hydroxyethoxy)-19-methoxy-12-[(1R)-2-[(1S,3R,4R)-3-methoxy-4-(3-morpholinopropoxy)cyclohexyl]-1-methyl-ethyl]-15,17,21,23,29,35-hexamethyl-11,36-dioxa-4-azatricyclo[30.3.1.0^4,9]hexatriaconta-16,24,26,28-tetraene-2,3,10,14,20-pentone]
IC50 (mTORC2): 1000 to 10000 nM | IC50 (mTORC1): < 0.316 nM

COCCOC1C[C@@H]2CC[C@@H](C)[C@@](O)(O2)C(=O)C(=O)N2CCCCC2C(=O)O[C@H]([C@H](C)C[C@@H]2CC[C@@H](OCCCN3CCN(C)CC3)[C@H](OC)C2)CC(=O)[C@H](C)/C=C(\C)[C@@H](O)[C@@H](OC)C(=O)[C@H](C)C[C@H](C)/C=C/C=C/C=C/1C (stereo partly shown) [Compound 32]
IC50 (mTORC2): 1000 to 10000 nM | IC50 (mTORC1): < 0.316 nM

CO[C@@H]1CC[C@@H](C[C@@H](C)[C@@H]2CC(=O)[C@H](C)/C=C(\C)[C@@H](O)[C@@H](OC)C(=O)[C@H](C)C[C@H](C)/C=C/C=C/C=C(\C)C(OCCCO)C[C@@H]3CC[C@@H](C)[C@@](O)(O3)C(=O)C(=O)N3CCCCC3C(=O)O2)C[C@H]1OC (stereo partly shown) [Compound 19]
IC50 (mTORC2): > 10000 nM | IC50 (mTORC1): < 0.316 nM
